Measured values reported in patent US10227331B2 (priority 2015, dated 2019).

How the values were obtained:
VIM-1 = VIM-1 (Pseudomonas aeruginosa (strain ATCC 15692 / DSM 22644 / CIP 104116 / JCM 14847 / LMG 12228 / 1C / PRS 101 / PAO1), UniProt A0A0F7KYQ8); assay: biochemical; conditions: CCF2-FA substrate, 2 hours at 25° C
Method in brief: (§1)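 Enzyme activity was measured by fluorescence using CCF2-FA, a cephalosporin-linked 7-hydroxycoumarin/fluorescein substrate, with inhibitor, metallo-β-lactamase and substrate incubated together for 2 hours at 25° C. IC50 came from a 4-parameter fit of inhibition versus log inhibitor concentration.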

IMP-1 = IMP-1 (Serratia marcescens, UniProt P52699); assay: biochemical; assay type: biochemical; conditions: CCF2-FA substrate, 2 hours at 25° C; read-out: IMP-1 IC50
IMP-1, sequence (P52699 whole entry, looked up, species assumed): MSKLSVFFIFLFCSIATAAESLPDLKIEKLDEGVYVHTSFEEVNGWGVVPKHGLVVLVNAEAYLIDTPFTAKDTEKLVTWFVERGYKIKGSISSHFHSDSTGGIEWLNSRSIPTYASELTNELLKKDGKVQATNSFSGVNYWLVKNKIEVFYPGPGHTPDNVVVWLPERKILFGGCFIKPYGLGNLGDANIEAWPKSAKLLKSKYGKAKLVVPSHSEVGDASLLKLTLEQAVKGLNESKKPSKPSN
Method in brief: as §1

NDM-1 = NDM-1 (Klebsiella pneumoniae, UniProt C7C422); assay: biochemical; assay type: biochemical; conditions: CCF2-FA substrate, 2 hours at 25° C; read-out: NDM-1 IC50
NDM-1, sequence (C7C422 whole entry, looked up, species assumed): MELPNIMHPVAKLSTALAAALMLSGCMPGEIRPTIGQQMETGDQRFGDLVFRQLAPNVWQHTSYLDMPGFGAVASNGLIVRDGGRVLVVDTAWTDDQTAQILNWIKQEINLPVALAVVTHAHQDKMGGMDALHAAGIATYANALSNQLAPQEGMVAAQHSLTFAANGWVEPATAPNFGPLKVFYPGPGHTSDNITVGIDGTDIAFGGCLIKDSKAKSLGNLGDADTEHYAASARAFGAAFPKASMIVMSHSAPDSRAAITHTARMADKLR
Method in brief: as §1

[1] = system: P. aeruginosa expressing IMP-1, efflux− (MB9799); assay: Efflux: concentration of MBL inhibitor which restores susceptibility to imipenem; assay type: cell-based, Pseudomonas aeruginosa; conditions: imipenem at 2 μg/mL, in the presence of a class A, C, D serine β-lactamase inhibitor closely related to relebactam
Description: (§2) The strain background is Pseudomonas aeruginosa PAO1.

[2] = system: P. aeruginosa expressing IMP-1, efflux+ (MB9798); assay type: cell-based, Pseudomonas aeruginosa; conditions: for P. aeruginosa expressing IMP-1, efflux+ (MB9798) MITC95: imipenem at 2 μg/mL, in the presence of a class A, C, D serine β-lactamase inhibitor closely related to relebactam; for Efflux ratio: ratio MITC95 PA_9798/MITC95 PA_9799
Description: as §2

[3] = system: Serratia marcescens expressing IMP-1 (CL5741); assay type: cell-based; conditions: with imipenem 1 μg/ml; 95% inhibition of bacterial growth
Method in brief: (§3)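 Restoration of imipenem susceptibility (1 μg/ml imipenem) was judged by absorbance after 22–24 h at 35° C. Test compound was added to bacteria suspended 1:100 in 1.1× CAMHB from overnight blood-agar cultures.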

[4] = system: Klebsiella pneumoniae expressing VIM-1 (IHMA599644); assay type: cell-based; conditions: with imipenem 1 μg/ml; 95% inhibition of bacterial growth
Method in brief: as §3

[5] = system: Escherichia coli expressing NDM-1 (CLB30005, CLB30016); assay type: cell-based; conditions: with imipenem 1 μg/ml; 95% inhibition of bacterial growth
Method in brief: as §3

Row | SMILES | IC50 (VIM-1) [nM] | IC50 (IMP-1) [nM] | IC50 (NDM-1) [nM] | P. aeruginosa expressing IMP-1, efflux− (MB9799) MITC95 [1] [µM] | P. aeruginosa expressing IMP-1, efflux+ (MB9798) MITC95 [2] [µM] | Serratia marcescens expressing IMP-1 (CL5741) MITC95 [3] [µM] | Klebsiella pneumoniae expressing VIM-1 (IHMA599644) MITC95 [4] [µM] | Escherichia coli expressing NDM-1 (CLB30016) MITC95 [5] [µM] | Efflux ratio [2]
1 | NCC(O)CS(=O)(=O)c1ccc(-c2cccc3sc(N)nc23)c(-c2nn[nH]n2)c1S(N)(=O)=O (centres unmarked) [Example 97, 6-(3-amino-2-hydroxypropylsulfonyl)-3-(2-aminobenzo[d]thiazol-4-yl)-2-(2H-tetrazol-5-yl)benzenesulfonamide] | 0.249 | 0.171 | 0.0645 | 0.7813 | 0.3906 | 1.563 | 1.563 | 0.7813 | –
2 | NS(=O)(=O)c1c(S(=O)(=O)C2CNC2)ccc(-c2cnc3ccccc3c2)c1-c1nnn[nH]1.O=C(O)C(F)(F)F [Example 98, 3-((4-(quinolin-3-yl)-2-sulfamoyl-3-(1H-tetrazol-5-yl)phenyl)sulfonyl)azetidin-1-ium 2,2,2-trifluoroacetate] | 0.241 | 1.97 | 0.4 | 1.563 | 25 | 3.125 | 3.125 | 3.125 | 15.99
3 | Cc1cc(-c2ccc(S(=O)(=O)C3CNC3)c(S(N)(=O)=O)c2-c2nnn[nH]2)cnc1C#N.O=C(O)C(F)(F)F [Example 99, 3-((4-(6-cyano-5-methylpyridin-3-yl)-2-sulfamoyl-3-(1H-tetrazol-5-yl)phenyl)sulfonyl)azetidin-1-ium 2,2,2-trifluoroacetate] | 0.535 | 13.7 | 3.94 | 1.563 | 200 | 12.5 | 6.25 | 6.25 | 127.96
4 | NS(=O)(=O)c1c(S(=O)(=O)C2CNC2)ccc(-c2cccc3[nH]ncc23)c1-c1nnn[nH]1.O=C(O)C(F)(F)F [Example 100, 3-((4-(1H-indazol-4-yl)-2-sulfamoyl-3-(1H-tetrazol-5-yl)phenyl)sulfonyl)azetidin-1-ium 2,2,2-trifluoroacetate] | 0.331 | 1.61 | 0.358 | 1.563 | 6.25 | 3.125 | 3.125 | 6.25 | 4.00
5 | NS(=O)(=O)c1c(S(=O)(=O)C2CNC2)ccc(-c2cnc3ccoc3c2)c1-c1nnn[nH]1.O=C(O)C(F)(F)F [Example 101, 3-((4-(furo[3,2-b]pyridin-6-yl)-2-sulfamoyl-3-(1H-tetrazol-5-yl)phenyl)sulfonyl)azetidin-1-ium 2,2,2-trifluoroacetate] | 0.399 | 1.48 | 0.905 | 1.563 | 12.5 | 3.125 | 6.25 | 3.125 | 8.00
6 | NS(=O)(=O)c1c(S(=O)(=O)C2CNC2)ccc(-c2cccc3ccnn23)c1-c1nnn[nH]1.O=C(O)C(F)(F)F [Example 102, 3-((4-(pyrazolo[1,5-a]pyridin-7-yl)-2-sulfamoyl-3-(1H-tetrazol-5-yl)phenyl)sulfonyl)azetidin-1-ium 2,2,2-trifluoroacetate] | 0.457 | 0.909 | 0.407 | 1.563 | 3.125 | 3.125 | 3.125 | 3.125 | 2.00
7 | Cn1cnc2cc(-c3ccc(S(=O)(=O)C4CNC4)c(S(N)(=O)=O)c3-c3nnn[nH]3)cnc21.O=C(O)C(F)(F)F [Example 103, 3-((4-(3-methyl-3H-imidazo[4,5-b]pyridin-6-yl)-2-sulfamoyl-3-(1H-tetrazol-5-yl)phenyl)sulfonyl)azetidin-1-ium 2,2,2-trifluoroacetate] | 0.581 | 1.85 | 0.954 | 1.563 | 12.5 | 3.125 | 6.25 | 12.5 | 8.00
8 | NS(=O)(=O)c1c(S(=O)(=O)C2CNC2)ccc(-c2ccc3ncnn3c2)c1-c1nnn[nH]1.O=C(O)C(F)(F)F [Example 104, 3-((4-([1,2,4]triazolo[1,5-a]pyridin-6-yl)-2-sulfamoyl-3-(1H-tetrazol-5-yl)phenyl)sulfonyl)azetidin-1-ium 2,2,2-trifluoroacetate] | 0.699 | 3.53 | 2.09 | 1.563 | 12.5 | 6.25 | 3.125 | 3.125 | 8.00
9 | NS(=O)(=O)c1c(S(=O)(=O)C2CNC2)ccc(-c2cncnc2)c1-c1nnn[nH]1.O=C(O)C(F)(F)F [Example 110, 3-((4-(pyrimidin-5-yl)-2-sulfamoyl-3-(1H-tetrazol-5-yl)phenyl)sulfonyl)azetidin-1-ium 2,2,2-trifluoroacetate] | 3.47 | 13.2 | 4.79 | 1.563 | 25 | 1.563 | 3.125 | 1.563 | 15.99
10 | Nc1cncc(-c2ccc(S(=O)(=O)C3CNC3)c(S(N)(=O)=O)c2-c2nnn[nH]2)c1.O=C(O)C(F)(F)F [Example 112, 3-((4-(5-aminopyridin-3-yl)-2-sulfamoyl-3-(1H-tetrazol-5-yl)phenyl)sulfonyl)azetidin-1-ium 2,2,2-trifluoroacetate] | 1.79 | 8.68 | 2.51 | 3.125 | 12.5 | 3.125 | 6.25 | 3.125 | 4.00
11 | NS(=O)(=O)c1c(S(=O)(=O)C2CNC2)ccc(-c2cccc3c2CNC3=O)c1-c1nnn[nH]1.O=C(O)C(F)(F)F [Example 113, 3-((4-(1-oxoisoindolin-4-yl)-2-sulfamoyl-3-(1H-tetrazol-5-yl)phenyl)sulfonyl)azetidin-1-ium 2,2,2-trifluoroacetate] | 0.164 | 6.06 | 0.137 | 1.563 | 12.5 | 3.125 | 6.25 | 1.563 | 8.00
12 | NS(=O)(=O)c1c(S(=O)(=O)C2CNC2)ccc(-c2ccc3scnc3c2)c1-c1nnn[nH]1.O=C(O)C(F)(F)F [Example 114, 3-((4-(benzo[d]thiazol-5-yl)-2-sulfamoyl-3-(1H-tetrazol-5-yl)phenyl)sulfonyl)azetidin-1-ium 2,2,2-trifluoroacetate] | 0.116 | 0.261 | 0.15 | 0.7813 | 6.25 | 0.7813 | 1.563 | 0.3906 | 8.00
13 | NS(=O)(=O)c1c(S(=O)(=O)C2CNC2)ccc(-c2ccc3ncccc3c2)c1-c1nnn[nH]1.O=C(O)C(F)(F)F [Example 115, 3-((4-(quinolin-6-yl)-2-sulfamoyl-3-(1H-tetrazol-5-yl)phenyl)sulfonyl)azetidin-1-ium 2,2,2-trifluoroacetate] | 0.276 | 0.793 | 0.236 | 1.563 | 12.5 | 3.125 | 3.125 | 3.125 | 8.00
